Literature values as cited in PMC7894237 (Inflammation Research, 2021).
Like-named read-outs stand apart in the source and are kept apart here.

Assays:
[1] = test system: AAK1; details: compared with ruxolitinib and fedratinib
[2] = test system: COVID-19 particle entry in human lung host cells; details: via inhibiting AAK1 and binding to GAK
[3] = test system: IL-6 and GM-CSF levels
[4] = test system: severe cases of COVID-19; details: compared with the control group
[5] = test system: AAK1
[6] = test system: patients with rheumatoid arthritis
[7] = test system: IL-1α, IL-1β, and TNF-α
[8] = test system: patients with SARS infection; details: human, in vivo
[9] = test system: SARS-CoV1 replication in Vero cells
[10] = test system: SARS-CoV1 replication in Vero cells; remark: listed apart in the source
[11] = not given; remark: listed apart in the source
[12] = test system: sHLH/MAS patients; details: five adult patients, IV infusions up to 2400 mg/day
[13] = test system: patients with severe sepsis with hyper-inflammation; details: phase 3 randomized clinical trial
[14] = test system: patient with severe COVID-19; details: anakinra started day 10 after hospital admission
[15] = test system: patients with COVID-19; details: nine patients
[16] = test system: COVID-19 patients; details: single 300 mg dose subcutaneously, ten patients
[17] = test system: patients with CAPS
[18] = test system: patients with COVID-19 who developed ARDS
[19] = test system: patients with multicentric Castleman disease
[20] = test system: Castleman’s disease
[21] = not given; remark: listed apart in the source
[22] = test system: severe cases of COVID-19
[23] = test system: patients with COVID-19
[24] = test system: COVID-19 pneumonia
[25] = not given; remark: listed apart in the source
[26] = test system: malaria; details: deficient mice
[27] = test system: patients with COVID-19; details: patient, died 13 days after hospitalization
[28] = test system: influenza; details: pre-treatment, same dose of subtypes
[29] = of those who experienced a worsening

**Q.** Which “affinity to AAK1” value [1] does the source give for `CCS(=O)(=O)N1CC(CC#N)(n2cc(-c3ncnc4[nH]ccc34)cn2)C1` [baricitinib] here?
**A.** more affinity to AAK1

**Q.** And the COVID-19 particle entry [2]?
**A.** can reduce the COVID-19 particle entry

**Q.** What about the “IL-6 and GM-CSF levels” value [3] of the same molecule?
**A.** can decrease

**Q.** With `N#CC[C@H](C1CCCC1)n1cc(-c2ncnc3[nH]ccc23)cn1` [ruxolitinib] as the molecule, how does the clinical improvement [4] read?
**A.** faster clinical improvement

**Q.** Which results are given for `C[C@@H]1CCN(C(=O)CC#N)C[C@@H]1N(C)c1ncnc2[nH]ccc12` [tofacitinib]?
**A.** inhibition of AAK1 [5]: does not significantly inhibit; CRP level and erythrocyte sedimentation rates [6]: decreased CRP level and erythrocyte sedimentation rates (ESR); major side effects [6]: increasing both low-density lipoprotein (LDL) and high-density lipoprotein (HDL) levels, and decreasing blood neutrophils

**Q.** For `C=C1CC[C@H](O)C/C1=C/C=C1\CCC[C@]2(C)[C@@H]([C@H](C)/C=C/[C@H](C)C(C)C)CC[C@@H]12` [vitamin D], which “expression of pro-inflammatory markers” value [7] is on record?
**A.** suppressing the expression of pro-inflammatory markers

**Q.** Which therapeutic effect [8] does the source give for IFN-α here?
**A.** inconclusive

**Q.** And the “effect on SARS-CoV1 replication” value [9]?
**A.** inhibited synergistically

**Q.** And the “sensitivity of SARS-CoV1 to the interferon” value [10]?
**A.** only weakly sensitive

**Q.** For “anakinra: recombinant IL-1R antagonist; blocks the binding of both IL-1α and IL-1β to IL-1R”, which half-life is on record?
**A.** 4 to 6 h

**Q.** What about the bioavailability (subcutaneous route) of the same molecule?
**A.** 95%

**Q.** And the plasma concentrations (subcutaneous route, different chronic inflammatory conditions)?
**A.** adequate and consistent plasma concentrations

**Q.** And the side effects observed ([11]; chronic anakinra therapy)?
**A.** reaction at the site of injection and infection

**Q.** What about the “organ toxicities or gastrointestinal disturbances” value ([11]; specific IL-1β-targeting agents) of the same molecule?
**A.** no organ toxicities or gastrointestinal disturbances

**Q.** What about the therapeutic effect [12] of the same molecule?
**A.** reduced cytokine storm and subsequent clinical improvement

**Q.** And the side effects [13]?
**A.** without markedly side effects

**Q.** What about the therapeutic effect [13] of the same molecule?
**A.** beneficial

**Q.** What about the “day on which patient was discharged from the ICU” value [14] of the same molecule?
**A.** 18 days

**Q.** What about the “day on which respiratory function improved” value [14] of the same molecule?
**A.** 13 days

**Q.** And the therapeutic effect [15]?
**A.** prevents mechanical ventilation and decreases serum inflammatory markers

**Q.** What about the toxicity [15] of the same molecule?
**A.** no toxicity

**Q.** For “canakinumab: high affinity, monoclonal anti-IL-1β antibody”, which tolerability [16] is on record?
**A.** well tolerated, with no recorded injection site reactions, infection, or side-effects

**Q.** What does the source list for rilonacept?
**A.** major side effects [17]: reactions at injection-site, upper respiratory tract infections, sinusitis, cough, hypoesthesia, nausea, diarrhea, stomach discomfort, and urinary tract infections; serum CRP level ([17]; week six, pre-treatment baseline value = 22 mg/L): 2 mg/L

**Q.** For siltuximab: monoclonal antibody of IL-6, which “patients with improvement in their condition with a reduced need for ventilation” value ([18]; 21 patients, follow-up 8 days) is on record?
**A.** 33%

**Q.** And the “patients with worsening of their condition who required intubation” value ([18]; 21 patients, follow-up 8 days)?
**A.** 24%

**Q.** And the “patients with serum CRP levels reduced to within the normal range” value ([18]; 21 patients, intravenous 700-1200 mg, follow-up 8 days)?
**A.** 16 patients

**Q.** What about the “patients who developed a cerebrovascular event” value [18, 29] of the same molecule?
**A.** one

**Q.** And the patients who died [18, 29]?
**A.** one

**Q.** And the “side effect: vomiting” value ([19]; 3/60 patients)?
**A.** 5%

**Q.** What about the “side effect: nausea” value ([19]; 4/60 patients) of the same molecule?
**A.** 7%

**Q.** And the “side effect: neutropenia” value ([19]; 4/60 patients)?
**A.** 7%

**Q.** And the “side effect: fatigue” value ([19]; 5/60 patients)?
**A.** 8%

**Q.** What about the “side effect: hypertension” value ([19]; 8/60 patients) of the same molecule?
**A.** 13%

**Q.** What about the “side effect: infection” value ([19]; 25/60 patients) of the same molecule?
**A.** 42%

**Q.** And the deaths ([19]; 60 patients)?
**A.** no deaths

**Q.** And the maximum tolerated dose ([20]; Castleman’s disease)?
**A.** 100 mg twice weekly

**Q.** What about the “median decrease in hepcidin levels” value ([20]; day 8 of siltuximab treatment) of the same molecule?
**A.** 47%

**Q.** And the “dose at which maximum suppression of CRP level was observed” value ([20]; every 3 weeks)?
**A.** 12 mg/kg

**Q.** And the half-life [21]?
**A.** 391 ± 101 h

**Q.** Which results are given for “tocilizumab: recombinant humanized anti-interleukin-6 receptor monoclonal antibody”?
**A.** patients whose lymphocyte number returned to normal values ([22]; 10/19 patients): 52.6%; patients whose abnormal elevated C-reactive protein returned to normal values ([22]; 16/19 patients): 84.2%; patients with lowered oxygen intake ([22]; 5 days after administration, 15/ 20 patients): 75%; side effects ([22]; all patients): No obvious side effects; patients in whom the high level of CRP was suppressed rapidly [23]: 11/15; patients with decreased serum IL-6 levels ([23]; after tocilizumab therapy): ten; need for mechanical ventilation ([24]; after tocilizumab therapy): did not require mechanical ventilation; treatment outcome ([24]; single administration in combination with hydroxychloroquine): successfully treated; major side-effects [25]: general infections, hepatotoxicity, hypertriglyceridemia, as well as diverticulitis

B1: recombinant soluble IL-6R: recombinant soluble IL-6R, mimic the trans-signaling of IL-6 (protein, UniProt P08887 20-365, looked up)
extracellular domain: LAPRRCPAQEVARGVLTSLPGDSVTLTCPGVEPEDNATVHWVLRKPAAGSHPSRWAGMGRRLLLRSVQLHDSGNYSCYRAGRPAGTVHLLVDVPPEEPQLSCFRKSPLSNVVCEWGPRSTPSLTTKAVLLVRKFQNSPAEDFQEPCQYSQESQKFSCQLAVPEGDSSFYIVSMCVASSVGSKFSKTQTFQGCGILQPDPPANITVTAVARNPRWLSVTWQDPHSWNSSFYRLRFELRYRAERSKTFTTWMVKDLQHHCVIHDAWSGLRHVVQLRAQEEFGQGEWSEWSPEAMGTPWTESRSPPAENEVSTPMQALTTNKDDDNILFRDSANATSLPVQDSSSVPLP
modifications: extracellular domain
**Q.** Which outcome of malaria [26] does the source give for B1 here?
**A.** restores the lethal outcome of malaria

B2: sarilumab: human monoclonal antibody directed against the alpha subunit of the IL-6R (antibody, chains of the INN, looked up, V domains shown)
VH: EVQLVESGGGLVQPGRSLRLSCAASRFTFDDYAMHWVRQAPGKGLEWVSGISWNSGRIGYADSVKGRFTISRDNAENSLFLQMNGLRAEDTALYYCAKGRDSFDIWGQGTMVTVSS
VL: DIQMTQSPSSVSASVGDRVTITCRASQGISSWLAWYQQKPGKAPKLLIYGASSLESGVPSRFSGSGSGTDFTLTISSLQPEDFASYYCQQANSFPYTFGQGTKLEIK
**Q.** Which “patients with no improvement in lung function who died” value [27] does the source give for B2 here?
**A.** one

B3: IFN-α5: type I IFN subtype (protein, UniProt P01569 22-189, looked up)
Interferon alpha-5: LGCDLPQTHSLSNRRTLMIMAQMGRISPFSCLKDRHDFGFPQEEFDGNQFQKAQAISVLHEMIQQTFNLFSTKDSSATWDETLLDKFYTELYQQLNDLEACMMQEVGVEDTPLMNVDSILTVRKYFQRITLYLTEKKYSPCAWEVVRAEIMRSFSLSANLQERLRRKE
**Q.** Which “effect on viral load” value [28] does the source give for B3 here?
**A.** more suppressive effects on the viral load than IFN-α1

B4: IFN-α6: type I IFN subtype (protein, UniProt P05013 21-189, looked up)
Interferon alpha-6: SLDCDLPQTHSLGHRRTMMLLAQMRRISLFSCLKDRHDFRFPQEEFDGNQFQKAEAISVLHEVIQQTFNLFSTKDSSVAWDERLLDKLYTELYQQLNDLEACVMQEVWVGGTPLMNEDSILAVRKYFQRITLYLTEKKYSPCAWEVVRAEIMRSFSSSRNLQERLRRKE
**Q.** For B4, which “effect on viral load” value [28] is on record?
**A.** more suppressive effects on the viral load than IFN-α1

B5: interferon-gamma: Type II IFN (protein, UniProt P01579 24-161, looked up)
Interferon gamma: QDPYVKEAENLKKYFNAGHSDVADNGTLFLGILKNWKEESDRKIMQSQIVSFYFKLFKNFKDDQSIQKSVETIKEDMNVKFFNSNKKKRDDFEKLTNYSVTDLNVQRKAIHELIQVMAELSPAAKTGKRKRSQMLFRG
**Q.** Which “sensitivity of SARS-CoV1 to the interferon” value [10] does the source give for B5 here?
**A.** only weakly sensitive
